Key:
Assay type in all cases: in vivo, male mice (ddY-strain)
mice [1] = assay: Acute toxicity (oral, 72 hours); settings: for Safety margin (LD50 /ED50): potency ratio of the acute toxicity to the muscle relaxing activity, oral, mice
Method: (§1) A test compound dissolved or suspended in an aqueous 0.5% carboxymethylcellulose sodium salt solution was administered orally to a group of six male mice (ddY-strain, body weight: 18-20 g). The 50% lethal dose (LD50) of the test compound was calculated according to the probit method from the number of mice which died within a period of 72 hours after administration.

mice [2] = assay: Muscle relaxing activity (the rotating rod method)
Method: A test compound dissolved or suspended in an aqueous 0.5% carboxymethylcellulose sodium salt solution was administered orally to a group of three male mice (ddY-strain, body weight: 18-20 g). After administration of the test compound, the mice were placed on a rotating rod (3.5 cm in diameter, 7.5 r.p.m.) at intervals, and the number of mice which fell out of the rod at least twice within one minute was counted. The 50% effective dose (ED50) of the test compound was calculated therefrom according to the probit method.

[3] = Acute toxicity (oral, 72 hours); settings: mouse, in vivo; oral, mice, deaths within 72 hours, probit method
Method: as §1

Cc1ccccc1OCC(O)CO (stereo not drawn) [Mephenesin, 3-(o-tolyloxy)-1,2-propanediol, reference compound]
Safety margin (LD50 /ED50) (mice [1]): 4.06

Cc1cc(Cl)ccc1-n1c(CF)nc2ccc(N)cc2c1=O [Test compound 1, 2-fluoromethyl-3-(2-methyl-4-chlorophenyl)-6-amino-4(3H)-quinazolinone]
ED50 (mice [2]; Mus musculus, oral, mice, rotating rod, probit method): 13.6 mg/kg
muscle relaxing activity, times stronger than that of Mephenesin (mice [2]; rotating rod method (mice), relative to Mephenesin): about 36.6 times
LD50 at 72 h [3]: 702 mg/kg
safety margin, times as high as that of Mephenesin (mice [1]; acute toxicity to muscle relaxing activity ratio, relative to Mephenesin): about 12.7 times
Safety margin (LD50 /ED50) (mice [1]): 51.6
